Experimental data taken from patent US8476031B2, “Methods for protein labeling based on acyl carrier protein” (priority 2003, dated 2013).

Legend:
[1] = molecular target: T1, ACP-NK1 receptor transiently expressed in HE293 cells (UniProt P0A6A8+P25103); assay: Co-staining of ACP-NK1 with CoA-Cy5 and SP-rho, reversal by unlabeled substance P; format: cell-based; conditions: CoA-Cy5 and SP-rho co-stained
T1 construct: FLAG tag (C); 6xHis tag (C); expressed in transfected cells; host or cells: HEK293 (transient, pCEP4 vector)
T1 sequence (P0A6A8+P25103 fused): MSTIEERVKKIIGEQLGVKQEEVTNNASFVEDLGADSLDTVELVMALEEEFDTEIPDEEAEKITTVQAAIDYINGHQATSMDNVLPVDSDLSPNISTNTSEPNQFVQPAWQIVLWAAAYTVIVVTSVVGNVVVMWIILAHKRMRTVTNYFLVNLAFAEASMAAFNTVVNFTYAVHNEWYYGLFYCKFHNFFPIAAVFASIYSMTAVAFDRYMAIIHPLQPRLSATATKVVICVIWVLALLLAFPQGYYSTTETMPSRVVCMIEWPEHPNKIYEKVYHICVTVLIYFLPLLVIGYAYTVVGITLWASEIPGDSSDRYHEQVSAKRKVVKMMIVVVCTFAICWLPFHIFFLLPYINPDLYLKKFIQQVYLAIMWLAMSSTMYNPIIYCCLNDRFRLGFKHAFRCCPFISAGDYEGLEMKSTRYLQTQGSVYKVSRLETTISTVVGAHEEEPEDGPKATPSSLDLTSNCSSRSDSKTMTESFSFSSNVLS
Procedure: For the transient expression of ACP-NK1, the signal sequence of the 5-HT3-receptor (Sig5HT3) is fused to the N terminus of ACP via a short DYV linker and NK1 is fused to the C terminus of ACP via a short TS linker. In the resulting construct, a FLAG tag and a 6xHis tag is also attached to the C terminus of NK1. The corresponding gene of the fusion protein is inserted into the NheI and BamHI sites of the vector pCEP4 (Invitrogen). HEK293 cells are grown in DMEM/F2 (Dulbecco's modified Eagle medium, GIBCO BRL) supplemented with […] fetal calf serum (GIBCO, BRL). Transient transfection is performed as described (Nat Biotechnol 21, 86-89 (2003)) and the HEK293 cells are co-transfected with vectors expressing ACP-NK1 and a nuclear targeted EGEP (EGFP-NLS3). […] The cells are then washed three times with PBS to remove any excess substrate and directly analyzed by laser-scanning confocal fluorescence microscopy when labeled with Cy3 or Cy5. […] Laser-scanning confocal micographs are recorded using a 488 nm argon/krypton laser line; a 543 nm HeNe laser line or a 633 nm HeNe laser line on a Zeiss LSM 510 microscope (Carl Zeiss AG, Göttingen, Germany) with a 63× water (1.2 numerical aperture) objective. […] Fluorescence is analyzed in the channels sensitive to GFP and sensitive to the respective dye. […]

[2] = molecular target: T2, ACP-NK1 fusion protein displayed on HEK293 cells (UniProt P0A6A8+P24224+P25103); assay: Labeling of ACP-NK1 fusion protein displayed on HEK293 cells (confocal fluorescence microscopy); format: cell-based; conditions: 5 μM CoA substrate, 1 μM 6xHis-AcpS, 10 min RT; CoA-Bt followed by Streptavidin-Cy5; no staining of non-transfected cells
T2 construct: FLAG tag (C); 6xHis tag (C); expressed in transfected cells; host or cells: HEK293 (transient, pCEP4 vector)
T2 sequence (P0A6A8+P25103 fused, one chain of several): as the sequence (P0A6A8+P25103 fused) above
Procedure: For the transient expression of ACP-NK1, the signal sequence of the 5-HT3-receptor (Sig5HT3) is fused to the N terminus of ACP via a short DYV linker and NK1 is fused to the C terminus of ACP via a short TS linker. In the resulting construct, a FLAG tag and a 6xHis tag is also attached to the C terminus of NK1. The corresponding gene of the fusion protein is inserted into the NheI and BamHI sites of the vector pCEP4 (Invitrogen). HEK293 cells are grown in DMEM/F2 (Dulbecco's modified Eagle medium, GIBCO BRL) supplemented with […] fetal calf serum (GIBCO, BRL). Transient transfection is performed as described (Nat Biotechnol 21, 86-89 (2003)) and the HEK293 cells are co-transfected with vectors expressing ACP-NK1 and a nuclear targeted EGEP (EGFP-NLS3). After 24 h, cells are incubated for 10 min at room temperature with 500 μl of PBS buffer containing MgCl2 (10 mM), 6xHis-AcpS (1 μM) and either CoA-Cy3, CoA-Cy5 or CoA-Bt (each 5 μM). The cells are then washed three times with PBS to remove any excess substrate and directly analyzed by laser-scanning confocal fluorescence microscopy when labeled with Cy3 or Cy5. Biotinylated cells are incubated with FluoroLink™ Cy5-labeled streptavidin (Amersham Biosciences) at concentrations of 1 μg/ml in PBS before being washed three times with PBS. Laser-scanning confocal micographs are recorded using a 488 nm argon/krypton laser line; a 543 nm HeNe laser line or a 633 nm HeNe laser line on a Zeiss LSM 510 microscope (Carl Zeiss AG, Göttingen, Germany) with a 63× water (1.2 numerical aperture) objective. Scanning speed and laser intensity are adjusted to avoid photobleaching of the fluorescent probes, and damage or morphological changes of the cells. Fluorescence is analyzed in the channels sensitive to GFP and sensitive to the respective dye. […] The ACP-NK1 receptor transiently expressed in HE293 cells is co-stained in a further experiment with CoA-Cy5 and with tetramethylrhodamine-labeled substance P(SP-rho), the natural ligand of NK1.

6xHis-ACP = 6xHis-ACP (Escherichia coli, UniProt P0A6A8+P24224); assay: In vitro biotinylation of 6xHis-ACP using CoA-Bt and 6xHis-ACPS (Western blot); format: biochemical, E. coli; conditions: 6xHis-ACP 1 μM, 6xHis-ACPS 0.2 μM, CoA-Bt 5 μM; controls lacking components
Chain of 6xHis-ACP (P0A6A8 whole entry, looked up, one chain of several): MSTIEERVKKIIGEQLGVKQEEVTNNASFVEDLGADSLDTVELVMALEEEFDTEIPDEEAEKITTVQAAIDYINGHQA
Procedure: (A) Analysis of the reaction of 6xHis-ACP (1 μM), 6xHis-ACPS (0.2 μM) and CoA-Bt (5 μM). At indicated times (t) aliquots are removed from the reaction mixture and biotinylation of 6xHis-ACP probed by Western blotting using a streptavidin-peroxidase conjugate.
Purified 6xHis-ACP (1 μM) is incubated with 6xHis-ACPS (0.2 μM) and MgCl2 (10 mM) in reaction buffer (43 μl, 50 mM Tris Cl, pH 8.8) at room temperature. An aliquot of 7.5 μl is taken for analysis. CoA-Bt is added to a final concentration of 5 μM. Aliquots of 7.5 μl are taken at defined times. The aliquots are quenched for 30 seconds with coenzyme A (1 mM final concentration), and 8.2 μl SDS-buffer 2× are added. The samples are heated for 2 minutes at 95° C. The biotinylated 6xHis-ACP is detected by Western-blotting, using a streptavidin-horseradish peroxidase conjugate (NEN) and a chemiluminescent peroxidase substrate (Renaissance reagent plus, NEN). The western blot is analyzed using an image station (Kodak 440). As controls, samples containing each protein alone, and samples containing only one of the two proteins and CoA-Bt are also prepared and analyzed for biotinylation as above in order to check the background and to check the specificity of the reaction.

6xHis-ACPS = molecular target: T3, 6xHis-ACPS (Escherichia coli, UniProt P24224); assay: Competition assay between CoA and CoA-label as ACPS substrates; format: biochemical, E. coli; conditions: 6xHis-ACP 0.4 μM, 6xHis-ACPS 0.4 μM, CoA-L 2 μM, CoA 0-80 μM; fit I=A/(1+Bx) of Western blot intensities
T3 sequence (P24224 1-126): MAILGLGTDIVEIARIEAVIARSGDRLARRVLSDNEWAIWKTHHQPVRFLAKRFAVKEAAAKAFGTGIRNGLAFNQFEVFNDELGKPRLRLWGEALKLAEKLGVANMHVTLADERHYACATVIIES
Procedure: (C) Competition assay between CoA and CoA-Bt or CoA-Dg as ACPS substrates: 6xHis-ACP (0.4 μM), 6xHis-ACPS (0.4 μM), CoA-Bt or CoA-Dg (2 μM) and varying concentrations of CoA (0-80 μM) are incubated for 30 min and the degree of labeling determined by Western blotting.
Purified 6xHis-AcpS (0.4 μM) is incubated at RT with either CoA-Bt or CoA-Dg (2 μM), variable amounts of CoA (0, 2, 4, 8, 12, 20, 40, 80 μM) and purified 6xHis-ACP-ha (0.4 μM) in 20 μl reaction buffer (50 mM Tris.Cl, pH 7.5, 10 mM MgCl2). After 25 minutes, each sample is quenched by addition of 20 μl of 2×SDS sample buffer and heated at 95° C. for 2 minutes. Labeled 6xHis-ACP-ha is detected by Western-blotting using either a streptavidin-horseradish peroxidase conjugate (dilution 1:12500) or an anti-digoxigenin antibody-horseradish peroxidase conjugate (dilution 1:500) and a chemiluminescent peroxidase substrate. Signal intensities at 0 μM CoA are arbitrary set to 1 for each experiment.

Structure (SMILES)	staining localisation in co-staining experiment [1]	membrane labelling of transfected HEK293 cells [2]	biotinylation of 6xHis-ACP, specificity controls (6xHis-ACP)	ratio of the specificity constants (kcat/KM)CoA/(kcat/KM)CoA-L (6xHis-ACPS)
CCN1/C(=C/C=C/C=C/C2=[N+](CCCCCC(=O)NCCN3C(=O)C[C@@H](SCCNC(=O)CCNC(=O)[C@H](O)C(C)(C)COP(=O)(O)OP(=O)(O)OC[C@H]4O[C@@H](n5cnc6c(N)ncnc65)C(O)[C@H]4OP(=O)(O)O)C3=O)c3ccc(S(=O)(=O)O)cc3C2(C)C)C(C)(C)c2cc(S(=O)(=O)[O-])ccc21 (stereo partly shown) [CoA-Cy5]	stain exclusively the membrane area	clear membrane labelling	–	–
CC(C)(COP(=O)(O)OP(=O)(O)OC[C@H]1O[C@@H](n2cnc3c(N)ncnc32)C(O)[C@H]1OP(=O)(O)O)[C@@H](O)C(=O)NCCC(=O)NCCS[C@@H]1CC(=O)N(CCCCCC(=O)NNC(=O)CCCC[C@@H]2SC[C@@H]3NC(=O)N[C@@H]32)C1=O (stereo partly shown) [CoA-Bt]	–	clear membrane labelling	depends on the presence of all three components	0.48
CCN1/C(=C/C=C/C2=[N+](CCCCCC(=O)NCCN3C(=O)C[C@@H](SCCNC(=O)CCNC(=O)[C@H](O)C(C)(C)COP(=O)(O)OP(=O)(O)OC[C@H]4O[C@@H](n5cnc6c(N)ncnc65)C(O)[C@H]4OP(=O)(O)O)C3=O)c3ccc(S(=O)(=O)O)cc3C2(C)C)C(C)(C)c2cc(S(=O)(=O)[O-])ccc21 (stereo partly shown) [CoA-Cy3]	–	clear membrane labelling	–	–
CC(C)(COP(=O)(O)OP(=O)(O)OC[C@H]1O[C@@H](n2cnc3c(N)ncnc32)C(O)[C@H]1OP(=O)(O)O)[C@@H](O)C(=O)NCCC(=O)NCCSC1CC(=O)N(CCCCCC(=O)NNC(=O)CCC(=O)N[C@H]2CC[C@@]3(C)[C@H](CC[C@@H]4[C@H]3C[C@@H](O)[C@]3(C)[C@@H](C5=CC(=O)OC5)CC[C@]43O)C2)C1=O (stereo partly shown) [CoA-Dg]	–	–	–	0.35
